One assay has as its system Female Brown Norway rats. The assay is described as follows: Rat model for endometriosis, late phase (15 day). In kind it is in vivo. The note with it: rat 15 day endometriosis model, once daily p.o. 5, 30, 60 mg/kg; FIG. 5-6. As to the method: 5. Rat Model for Endometriosis, Late Phase Female Brown Norway rats (Charles-River) were treated with Compound Example 3 (doses: 5 mg/kg, 30 mg/kg, 60 mg/kg) or vehicle alone (10% DMSO+90% phosphate buffered saline (PBS). 2 h later all animals got under deep anesthesia a transplantation of 6 uterus pieces in the peritoneal cavity. The tissue was obtained from donor animals which were pre-treated with 3 μg s.c. Estradiol for 2 days to guarantee standardized conditions of the uterus tissue. The animals were treated once daily p.o. with Compound Example 3 (doses: 5 mg/kg, 30 mg/kg, 60 mg/kg) or respective vehicle (10% DMSO+90% phosphate buffered saline (PBS). 15 days later the animals were sacrificed and the transplants as surrogate endometriosis lesion tissue were analyzed for markers of lesion activity (inflammatory cytokines). This approach is mimicking the long term effect on established inflammation in endometriosis. Analysis For ex vivo cytokine analysis, animals were sacrificed and tissues (endometriosis lesions) were frozen at −80° C. […] After centrifugation at 13.000 U/min (Eppendorf) supernatants were analyzed for cytokine levels using Bio-Plex Pro™ Rat Cytokine 24-plex (Bio Rad Assay #171K1001M) or the Bio-Plex Pro™ Mouse Cytokine 23-Plex (Bio Rad Assay #M600009RDPD) according to the manufacturer's protocols.

The test system of a further assay is Male Sprague-Dawley rats. The assay is described as follows: Rat STZ model for diabetic neuropathy (cold plate, warm plate, paw pressure, SNCV). Type of assay: in vivo. The note with it: for Latency in Cold plate / Latency in Warm plate / Paw pressure: STZ rats; for Latency in Cold plate / Latency in Warm plate: Day 10, individual animals; for Paw pressure: Day 21, individual animals. As to the method: 7. Rat STZ Model for Diabetic Neuropathy (Diabetic Neuropathic Pain, Diabetes Induced Nerve Degeneration)
The streptozotocin (STZ) diabetic rat is the most extensively studied animal model of diabetic neuropathy. The animals develop rapidly allodynia and hyperalgesia.
Male Sprague-Dawley rats (˜200 g) were used. They were rendered diabetic by intravenous injection of streptozotocin (55 mg/kg; day 0). Four days (day 4) later, diabetes was confirmed in STZ-injected rats by obtaining a blood sample from the tail vein and by measuring the glucose concentration using a glucose monitor. Only STZ-treated rats with plasma-glucose>260 mg/dl were deemed “diabetic”. The body weight of rats was recorded on daily basis from day 4 to 40.
72 animals were randomly assigned to different groups (12 rats per group).
Compound example 3 was prepared in 10% DMSO in PBS (v/v). […] The treatment was performed on daily basis (twice a day: morning and afternoon) from day 4 until day 40. On the day where behavioral measures are performed, compound or vehicle was given 60 min prior the assessment. On the day where electrophysiological measure was performed, treatment was performed after the assessment.
For positive control regarding analgesia, morphine was dissolved in 0.9% NaCl, and administrated subcutaneously (s.c.) at the dose of 3 mg/kg 45 min prior the tests.
Experimental Plan: • Day 0: induction of diabetes by injection of STZ for all groups except the control group injected with the STZ vehicle • Day 4: glycemia monitoring for all groups and start of the treatment for all groups, except the morphine group. On day 4 rats received only the evening treatment. • Day 10: cold and warm allodynia test for all groups. Treatment is given 60 min prior to the assessment. On that day, the time between the morning and the evening treatment was reduced. • Day 21: Mechanical hyperalgesia test for all groups. Compound or vehicle was given 60 min prior to the assessment. On that day, the time between the morning and the evening treatment was reduced. • Day 22: Termination of rats in the morphine group. • Day 25-26: measurement of sensory nerve conduction velocity (SNCV). On that day, rats only received the evening treatment. • Day 39-40: measurement of sensory nerve conduction velocity (SNCV). On that day, rats only received the evening treatment. • Day 41: skin biopsy from all rats (histology processing and immunostaining of skin biopsy from 7 rats per group take about 4 weeks).
Cold Plate Test on Day 10
The animals were placed into a glass cylinder on a cold platform (0-1° C.). The latency before the first reaction (brisk move of the paw, little leaps) was recorded with a maximal time of 30 s.
Warm Plate Test on Day 10
The animals were placed into a glass cylinder on a hot plate adjusted to 42° C. The latency of the first reaction was recorded (paw lifting or licking, leaps or a jump to escape the heat). Results can be seen in FIG. 8 and table 6.
Paw pressure test is used to assess the hyperalgesia of animals in response to noxious mechanical stimulus. The nociceptive flexion reflex was quantified using the Randall-Selitto paw pressure device (Bioseb, France), which applies a linearly increasing mechanical force to the dorsum of the rat's hind paw. The mechanical nociceptive threshold is defined as the force in grams at which the rat withdraws its paw. The cut off pressure was set to 250 g.
Electrophysiological Measurements (SNCV)
Electrophysiological recordings of SNCV were performed using a Keypoint Electromyograph (EMG) (Medtronic, France). Rats were anaesthetized by intraperitoneal injection of 60 mg/kg ketamine chlorhydrate and 4 mg/kg xylazine. SNCV was recorded in the tail. Electrodes were placed as follows: The recording needle electrode was inserted near the base of the tail and stimulating needle electrode is placed about 50 mm away from the recording electrode towards the extremity of the tail. […]

Where “and” joins values, the source holds several entries; their conditions need not be identical. Identical values can stand only once.

Take `O=C(O)c1cc(NC(=O)C2(c3ccc(C(F)(F)F)cc3F)CC2)ccc1-c1cnn(C2CCC2)c1` [Example 3, 2-(1-Cyclobutyl-1H-pyrazol-4-yl)-5-[({1-[2-fluoro-4-(trifluoromethyl)phenyl]cyclopropyl}carbonyl)amino]benzoic acid]: the “expression of inflammatory cytokines in the lesions (IL-1 alpha, IL-1 beta)” value with Female Brown Norway rats was “decreased”. Moreover, the “effects in all endpoints (warm/cold/mechanical) of neuropathic pain” value in the assay on Male Sprague-Dawley rats (STZ diabetic rats, p.o. twice a day from day 4, tests on day 10 and day 21) is “significant effects”. In addition, in the assay on Male Sprague-Dawley rats (3 mg/kg, 3 mg/kg), the “Latency in Cold plate” value is 14.39 s and 14.46 s and 22.78 s and 15.84 s and 16.87 s and 16.18 s and 21.38 s and 20.52 s and 17.93 s and 15.23 s and 26.66 s and 23.47 s; the “Latency in Warm plate” value was 19.71 s and 21.41 s and 22.31 s and 20.16 s and 14.49 s and 17.12 s and 22.29 s and 17.89 s (2×) and 23.35 s and 24.72 s and 21.04 s; the Paw pressure is 125 g (3×) and 150 g (2×) and 105 g (4×) and 115 g and 140 g and 100 g. In the assay on Male Sprague-Dawley rats (15 mg/kg, 15 mg/kg), the “Latency in Cold plate” value is 22.94 s and 18.19 s and 23.62 s and 18.66 s and 20.23 s and 19.51 s and 23.02 s and 17.08 s and 24.66 s and 24.25 s and 20.00 s; the “Latency in Warm plate” value was 21.21 s and 17.56 s and 30.00 s and 23.09 s and 23.47 s and 19.44 s and 28.47 s and 15.88 s and 24.82 s and 20.31 s and 27.35 s; the Paw pressure is 100 g and 125 g (2×) and 135 g (2×) and 120 g and 110 g (3×) and 85 g and 105 g. Also, in the assay on Male Sprague-Dawley rats (60 mg/kg, 60 mg/kg), the “Latency in Cold plate” value was 20.21 s and 15.60 s and 17.29 s and 19.84 s and 14.52 s and 13.66 s and 22.28 s and 24.12 s and 21.12 s and 17.48 s and 22.45 s and 16.59 s; the “Latency in Warm plate” value is 17.88 s and 24.69 s and 21.32 s and 18.69 s and 21.23 s and 28.84 s and 18.84 s and 30.00 s and 23.02 s and 20.56 s and 26.94 s and 20.31 s; the Paw pressure is 105 g and 165 g and 95 g and 115 g (3×) and 140 g and 120 g and 110 g (3×) and 190 g.

The values above are taken from patent US12023319B2, “Carboxylic acid aromatic amides” (priority 2016, dated 2024).
